These results are taken from patent US7709482B2, “Polycyclic heteroaryl substituted triazoles useful as Axl inhibitors” (Rigel Pharmaceuticals, Inc., priority 2006, dated 2010).

One may read the IC50 as the concentration that inhibits the measured activity by half.

Read-outs that look alike come from different tables or passages of the source.

The target in the assay is T1, Axl (Homo sapiens, UniProt P30530).
T1 construct: endogenous in cells; host or cells: HeLa cells
T1 sequence (P30530 26-894): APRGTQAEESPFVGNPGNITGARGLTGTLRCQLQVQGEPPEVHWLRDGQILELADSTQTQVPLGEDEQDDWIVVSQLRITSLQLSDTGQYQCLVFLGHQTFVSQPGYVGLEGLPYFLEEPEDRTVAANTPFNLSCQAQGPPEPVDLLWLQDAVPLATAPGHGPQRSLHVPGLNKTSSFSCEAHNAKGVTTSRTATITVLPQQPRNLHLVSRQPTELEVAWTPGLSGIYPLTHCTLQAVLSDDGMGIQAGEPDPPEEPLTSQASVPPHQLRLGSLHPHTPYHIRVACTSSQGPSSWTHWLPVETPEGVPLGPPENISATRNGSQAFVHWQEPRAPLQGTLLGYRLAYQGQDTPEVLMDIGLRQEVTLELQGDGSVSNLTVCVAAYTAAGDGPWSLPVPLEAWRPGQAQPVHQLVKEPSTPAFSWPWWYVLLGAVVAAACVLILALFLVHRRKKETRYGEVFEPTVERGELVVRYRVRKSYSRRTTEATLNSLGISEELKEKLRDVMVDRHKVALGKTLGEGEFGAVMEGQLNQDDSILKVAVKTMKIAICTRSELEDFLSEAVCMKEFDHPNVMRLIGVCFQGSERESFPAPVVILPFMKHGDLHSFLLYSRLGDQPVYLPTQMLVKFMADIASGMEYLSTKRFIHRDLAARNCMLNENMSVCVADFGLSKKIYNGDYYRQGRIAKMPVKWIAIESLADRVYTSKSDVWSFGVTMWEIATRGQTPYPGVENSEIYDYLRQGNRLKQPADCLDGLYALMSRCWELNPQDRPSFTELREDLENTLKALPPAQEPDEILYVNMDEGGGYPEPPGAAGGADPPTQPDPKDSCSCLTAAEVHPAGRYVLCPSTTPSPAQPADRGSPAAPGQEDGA
Nature of the assay: Phospho-Akt In-Cell Western Assay (inhibition of Axl activity after Axl-antibody cross-linking). The format is cell-based. As to conditions: read-out: IC50. The procedure, abridged: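 Phospho-Akt was detected in formaldehyde-fixed cells by in-cell immunostaining with HRP chemiluminescence. Before fixation, HeLa cells kept 24 h in low-serum medium containing 500 ng/mL Axl/Fc received compound for 1 h at 37 °C, followed by 5-min Axl activation through antibody clustering.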

[1] abbreviates: inhibition of Axl activity, Table 1, compounds of formula (Ia).
Setting [2] is: Hela cells, phospho-Akt chemiluminescence normalized to relative cell number, compounds of formula (Ia), Table 1.

`Nc1nc(Nc2ccc(/C=C/CN3CCC(N4CCCCC4)CC3)nc2)nn1-c1cc2c(nn1)-c1ccccc1CCC2` [Compound 145, 1-(6,7-dihydro-5H-benzo[6,7]cyclohepta[1,2-c]pyridazin-3-yl)-N^3-(6-(3-(4-(piperidin-1-yl)piperidin-1-yl)-(E)-propenyl)pyridin-3-yl)-1H-1,2,4-triazole-3,5-diamine]: the IC50 under setting [1] is less than 1000 nM.
`CC1CN(c2ccc(Nc3nc(N)n(-c4cc5c(nn4)-c4ccccc4CCC5)n3)cc2)CC(C)N1` (centres unmarked) [Compound 17, 1-(6,7-dihydro-5H-benzo[6,7]cyclohepta[1,2-c]pyridazin-3-yl)-N^3-(4-(3,5-dimethylpiperazin-1-yl)phenyl)-1H-1,2,4-triazole-3,5-diamine]: the concentration for half-maximal inhibition (IC50) under setting [2] is less than 1000 nM.
As for `Nc1nc(Nc2ccc3c(c2)CCC(NCC2CC2)CC3)nn1-c1cc2c(nn1)-c1ccccc1CCC2` (centres unmarked) [Compound 230, 1-(6,7-dihydro-5H-benzo[6,7]cyclohepta[1,2-c]pyridazin-3-yl)-N^3-(7-(cyclopropylmethyl)amino-6,7,8,9-tetrahydro-5H-benzo[7]annulene-2-yl)-1H-1,2,4-triazole-3,5-diamine], the half-maximal inhibitory concentration (IC50) under setting [1] was less than 1000 nM.
Consider `Nc1nc(Nc2ccc(N3CC[C@H]4CCCC[C@@H]4C3)c(F)c2)nn1-c1cc2c(nn1)-c1ccccc1SCC2` [Compound 126, 1-(6,7-dihydro-5H-benzo[2,3]thiepino[4,5-c]pyridazin-3-yl)-N^3-(3-fluoro-4-((4aR,8aS)-decahydroisoquinolin-2-yl)phenyl)-1H-1,2,4-triazole-3,5-diamine], for which the IC50 under setting [2] was more than 20000 nM.
Turning to `Nc1nc(Nc2ccc3c(c2)CCC(N2CCC2)CC3)nn1-c1cc2c(nn1)-c1ccccc1CCC2` (centres unmarked) [Compound 151, 1-(6,7-dihydro-5H-benzo[6,7]cyclohepta[1,2-c]pyridazin-3-yl)-N^3-((7-azetidin-1-yl)-6,7,8,9-tetrahydro-5H-benzo[7]annulene-2-yl)-1H-1,2,4-triazole-3,5-diamine], the half-maximal inhibitory concentration (IC50) under setting [1] is less than 1000 nM.
